Article PMC9688530, “Development of Ic-ELISA and Colloidal Gold Lateral Flow Immunoassay for the Determination of Cypermethrin in Agricultural Samples” (Biosensors, 2022)
Values after ≈ are worked out from the molar mass of the structure shown. Values joined by “and” are separate entries in the source; they are usually repeats but may differ in a detail not shown here. Equal entries are not always repeated.

How the values were obtained:
antibody against CYP = test system: antibody against CYP; parameters: method as in PMID 26965575; settings: cited from earlier work
anti-CYP mAb 2G9A8 = test: homologous ic-ELISA, hapten 1 coating antigen, mAb 2G9A8; format: binding, mouse; settings: hapten 1 as coating antigen
Method: The ic-ELISA procedure was executed according to previous studies. Each well of the ELISA plate was coated with 100 μL of coating antigen diluted with carbonate buffer (0.05 mol/L, pH 9.6) at 4 °C overnight. After washing three times with phosphate-buffered saline (PBS, 0.01 mol/L, pH 7.4) containing 1‰ Tween-20, the wells were blocked with 200 μL of 5% skim milk powder in PBS at 37 °C for two hours. After the same washing procedure, 50 μL of CYP standard solution and 50 μL of mAb were pipetted into each well and incubated at 37 °C for one hour. After washing five times, 100 μL per well of 0.5‰ horseradish peroxidase-labeled goat anti-mouse IgG antibody in PBS was added and incubated at 37 °C for one hour. After the wells were washed five times, 100 μL per well of fresh substrate solution (0.1 mg/mL 3,3′,5,5′-tetramethylbenzidine and 0.024‰ H2O2 in 0.1 M citrate acid buffer) was added to react at 37 °C for 15 min. Then, 50 μL per well of 0.2 mol/L H2SO4 was used to stop the reaction, and the absorbances were read at 450 nm with a microplate reader.
After five immunizations, the anti-serum of five mice was collected to determine the serum titer. All mouse serum had high titers ranging from 1:64,000 to 1:256,000. […] Then, the sensitivity of these monoclonal antibodies was evaluated by homologous ic-ELISA. […] The subtype of mAb 2G7H9 was determined as IgG2b by a kit. […]

For `CC1(C)C(C=C(Cl)Cl)C1C(=O)OC(C#N)c1cccc(Oc2ccccc2)c1` (centres unmarked) [CYP, Cypermethrin], the IC50 (antibody against CYP) is given as 2.59 ng/mL and 2.6 ng/mL and the IC50 (anti-CYP mAb 2G9A8) is given as 176 ng/mL (≈ 423 nM).
